Reference: ChEMBL document CHEMBL5576153, “Synthesis of diversely substituted pyridin-2(1H)-ones and in vivo evaluation of their anti-allodynic effect on cutaneous inflammatory mechanical allodynia” (2024)
Calls of active or inactive are those of the source. The rule behind the calls is not given here.

Test system: Rattus norvegicus
Test: Anti-allodynic activity in rat model of capsaicin-induced inflammatory paw pain assessed as inhibition of mechanical allodynia at 5 uM administered intrathecally 30 mins prior to capsaicin induction and measured at 10 mins interval for 65 mins by von frey test relative to control
Assay type: functional
Conditions: for inhibition in vivo at 5 µM: central, 1.583 h, time 95 min; for inhibition: time 95.0 min

**Q.** For `O=c1[nH]cc(Nc2ccncc2)cc1-c1cccc2[nH]ccc12`, which inhibition in vivo at 5 µM is on record?
**A.** The inhibition in vivo at 5 µM was 56%.

**Q.** How did the inhibition turn out when `O=C(Nc1c[nH]c(=O)c(-c2cccc3[nH]ccc23)c1)C1CCNCC1` was run?
**A.** Its inhibition is “Active”.

**Q.** With `CCN(CC)CCCCn1ccc2c(-c3cc(Nc4ccncc4)c[nH]c3=O)cccc21` as the molecule, how does the inhibition read?
**A.** Its inhibition is “inactive”.

**Q.** With `CCN(CC)CCCn1ccc2c(-c3cc(Nc4ccncc4)c[nH]c3=O)cccc21` as the molecule, how does the inhibition read?
**A.** The inhibition was “inactive”.

**Q.** How did the inhibition in vivo at 5 µM turn out when `O=c1[nH]cc(OC2CCNCC2)cc1-c1cccc2[nH]ccc12` was run?
**A.** The inhibition in vivo at 5 µM was 64%.

**Q.** Which inhibition does the source give for `O=c1[nH]cc(Oc2ccncc2)cc1-c1cccc2[nH]ccc12` here?
**A.** Its inhibition is “Active”.

**Q.** For `O=C(Nc1c[nH]c(=O)c(-c2cccc3[nH]ccc23)c1)c1ccc([N+](=O)[O-])cc1`, which inhibition in vivo at 5 µM is on record?
**A.** The inhibition in vivo at 5 µM was 58%.

**Q.** Which inhibition does the source give for `O=c1[nH]cc(Oc2ccc([N+](=O)[O-])cc2)cc1-c1cccc2[nH]ccc12` here?
**A.** The inhibition was “Active”.

**Q.** For `Cn1ccc2c(-c3cc(Nc4ccncc4)c[nH]c3=O)cccc21`, which inhibition is on record?
**A.** The inhibition was “inactive”.

**Q.** How did the inhibition in vivo at 5 µM turn out when `COc1ncc(Nc2ccncc2)cc1-c1cccc2[nH]ccc12` was run?
**A.** Its inhibition in vivo at 5 µM is 85%.

**Q.** How did the inhibition turn out when `CN(c1ccncc1)c1c[nH]c(=O)c(-c2cccc3[nH]ccc23)c1` was run?
**A.** The inhibition was “Active”.

**Q.** For `O=C(Nc1c[nH]c(=O)c(-c2cccc3[nH]ccc23)c1)c1ccncc1`, which inhibition is on record?
**A.** Its inhibition is “Active”.
